Consider 15 molecules from article doi:10.1101/2024.08.19.608619, “Discovery of potent SARS-CoV-2 nsp3 macrodomain inhibitors uncovers lack of translation to cellular antiviral response” (bioRxiv, 2024).

Assay [1] concerns the target T1, SARS-CoV-2 nsp3-mac1 (Severe acute respiratory syndrome coronavirus 2, UniProt P0DTD1). As to the kind of experiment: biochemical. The arrangement: SARS-CoV-2 nsp3 macrodomain TR-FRET single point, per cent inhibition, n=2.
Assay [2] concerns the target T1, SARS-CoV-2 nsp3-mac1. As to the kind of experiment: biochemical. Format: biochemical. The settings on record: SARS-CoV-2 nsp3 macrodomain TR-FRET single point. In general terms: In TR-FRET formats the signal depends on donor and acceptor labels being close together.
Where [3] appears, read: read-out: perc_inhibition_mean, batch_name=ASAP-0000244-001.
Setting [4] is: read-out: perc_inhibition_mean, batch_name=ASAP-0000398-001.
The mark [5] stands for this setting: read-out: perc_inhibition_mean, batch_name=ASAP-0000250-001.
Setting [6] is: read-out: perc_inhibition_mean, batch_name=ASAP-0000471-001.
Where [7] appears, read: read-out: perc_inhibition_mean, batch_name=ASAP-0000279-001.
Where [8] appears, read: read-out: perc_inhibition_mean, batch_name=ASAP-0000339-001.
[9] abbreviates: read-out: perc_inhibition_mean, batch_name=ASAP-0000253-001.
The mark [10] stands for this setting: read-out: perc_inhibition_mean, batch_name=ASAP-0000481-001.

Read-outs that look alike come from different tables or passages of the source.

`Cn1nc(NC(=O)c2cc(-c3ccco3)[nH]n2)c2nccnc21` [ASAP-0000099]: the inhibition at 50 µM on SARS-CoV-2 nsp3-mac1 [1] (read-out: perc_inhibition_mean, batch_name=ASAP-0000099-001) was -5.4%. Further, the perc_inhibition_mean on SARS-CoV-2 nsp3-mac1 [2] (concentration 50.0 uM) is -5.398%.
As for `Cn1c(C(=O)NCCn2cccc2)cc2c(=O)n3ccccc3nc21` [ASAP-0000188], the inhibition at 50 µM at SARS-CoV-2 nsp3-mac1 [1] (read-out: perc_inhibition_mean, batch_name=ASAP-0000188-001) worked out at 2.26%. Also, at SARS-CoV-2 nsp3-mac1 [2] (concentration 50.0 uM), the perc_inhibition_mean worked out at 2.262%.
With `C[C@]1(C(=O)O)CCCN1C(=O)c1ncnc2[nH]ccc12` [ASAP-0000244], at SARS-CoV-2 nsp3-mac1 [1] (setting [3]), the inhibition at 50 µM was -5.29% and the inhibition at 100 µM stood at 5.67%. For the same molecule, at SARS-CoV-2 nsp3-mac1 [2] (concentration 50.0 uM), the perc_inhibition_mean was -5.285%. In addition, at SARS-CoV-2 nsp3-mac1 [2] (concentration 100.0 uM), the perc_inhibition_mean was determined as 5.665%.
Take `Cc1[nH]c2ncnc(NC(=O)[C@@H]3CCO[C@@H]3C)c2c1C` [ASAP-0000090]: the inhibition at 50 µM on SARS-CoV-2 nsp3-mac1 [1] (read-out: perc_inhibition_mean, batch_name=ASAP-0000090-001) stood at 35.1%. The perc_inhibition_mean at SARS-CoV-2 nsp3-mac1 [2] (concentration 50.0 uM) came out at 35.092%.
Consider `C[C@@]1(C(N)=O)CCCN1C(=O)c1cnn2ccc(C3CCN(C(=O)c4ccccc4)CC3)cc12` [ASAP-0000398], for which, at SARS-CoV-2 nsp3-mac1 [1] (setting [4]), the inhibition at 49.75 µM was -8.04% and the inhibition at 99.5 µM stood at 10.4%. Also, the perc_inhibition_mean on SARS-CoV-2 nsp3-mac1 [2] (concentration 49.75 uM) is on record as -8.039%. In addition, the perc_inhibition_mean on SARS-CoV-2 nsp3-mac1 [2] (concentration 99.5 uM) is recorded as 10.386%.
`CN(Cc1nccn1Cc1ccccc1)c1ncnc2[nH]ccc12` [ASAP-0000250]: at SARS-CoV-2 nsp3-mac1 [1] (setting [5]), the inhibition at 50 µM was -7.22% and the inhibition at 100 µM is -8.82%. The perc_inhibition_mean at SARS-CoV-2 nsp3-mac1 [2] (concentration 50.0 uM) is -7.218%. Further, at SARS-CoV-2 nsp3-mac1 [2] (concentration 100.0 uM), the perc_inhibition_mean is -8.82%.
Regarding `O=C1CC[C@H](COC(=O)c2ncnc3[nH]ccc23)CCN1` [ASAP-0000091], at SARS-CoV-2 nsp3-mac1 [1] (read-out: perc_inhibition_mean, batch_name=ASAP-0000091-001), the inhibition at 50 µM is -7.87%. Further, on SARS-CoV-2 nsp3-mac1 [2] (concentration 50.0 uM), the perc_inhibition_mean is given as -7.865%.
Consider `NC(=O)c1ccccc1NC(=O)c1ncnc2[nH]ccc12` [ASAP-0000044], for which the inhibition at 50 µM at SARS-CoV-2 nsp3-mac1 [1] (read-out: perc_inhibition_mean, batch_name=ASAP-0000044-001) is -2.59%. Also, on SARS-CoV-2 nsp3-mac1 [2] (concentration 50.0 uM), the perc_inhibition_mean is reported as -2.586%.
For the molecule `C=CCn1c(Cc2ccccc2)nnc1Sc1ncnc2[nH]ccc12` [ASAP-0000048], the inhibition at 50 µM at SARS-CoV-2 nsp3-mac1 [1] (read-out: perc_inhibition_mean, batch_name=ASAP-0000048-001) was -7.71%. For the same molecule, the perc_inhibition_mean on SARS-CoV-2 nsp3-mac1 [2] (concentration 50.0 uM) was -7.711%.
For `CC(C)[C@@H](Nc1ncnc2[nH]ccc12)c1nc2ccccc2[nH]1` [ASAP-0000471], at SARS-CoV-2 nsp3-mac1 [1] (setting [6]), the inhibition at 49.75 µM worked out at 37.3% and the inhibition at 99.5 µM was 52.5%. Besides, the perc_inhibition_mean at SARS-CoV-2 nsp3-mac1 [2] (concentration 49.75 uM) turned out to be 37.305%. For the same molecule, on SARS-CoV-2 nsp3-mac1 [2] (concentration 99.5 uM), the perc_inhibition_mean stood at 52.508%.
Turning to `FC(F)(F)c1nnc2n1CCN(c1ncnc3[nH]ccc13)C2` [ASAP-0000279], the inhibition at 49.75 µM on SARS-CoV-2 nsp3-mac1 [1] (setting [7]) was -1.97%. At SARS-CoV-2 nsp3-mac1 [1] (setting [7]), the inhibition at 99.5 µM is -1%. The perc_inhibition_mean on SARS-CoV-2 nsp3-mac1 [2] (concentration 49.75 uM, n=2) was -1.969%; at SARS-CoV-2 nsp3-mac1 [2] (concentration 99.5 uM, n=2), -1.005%.
For the molecule `c1nc(N2CC[C@@H](n3cncn3)C2)c2cc[nH]c2n1` [ASAP-0000006], the inhibition at 50 µM at SARS-CoV-2 nsp3-mac1 [1] (read-out: perc_inhibition_mean, batch_name=ASAP-0000006-001) is -1.54%. The perc_inhibition_mean at SARS-CoV-2 nsp3-mac1 [2] (concentration 50.0 uM) is on record as -1.543%.
On to `CN(Cc1cn(C)nn1)C(=O)c1ccc(NC(=O)Nc2ccccc2)cc1` [ASAP-0000339], for which, on SARS-CoV-2 nsp3-mac1 [1] (setting [8]), the inhibition at 49.75 µM worked out at 0.883% and the inhibition at 99.5 µM is 0.566%. At SARS-CoV-2 nsp3-mac1 [2] (concentration 49.75 uM, n=2), the perc_inhibition_mean is given as 0.883%. Besides, the perc_inhibition_mean on SARS-CoV-2 nsp3-mac1 [2] (concentration 99.5 uM, n=2) stood at 0.566%.
Regarding `Cc1cc(C(=O)Nc2[nH]nc3nc(O)ccc23)c2c(C)nn(C)c2n1` [ASAP-0000253], on SARS-CoV-2 nsp3-mac1 [1] (setting [9]), the inhibition at 50 µM was -6.17% and the inhibition at 100 µM was -3.32%. Moreover, at SARS-CoV-2 nsp3-mac1 [2] (concentration 50.0 uM), the perc_inhibition_mean is on record as -6.166%. At SARS-CoV-2 nsp3-mac1 [2] (concentration 100.0 uM), the perc_inhibition_mean is given as -3.323%.
Turning to `CC(C)[C@@H](CCN(C)C(=O)C1CCc2ccccc2CC1)Nc1ncnc2[nH]ccc12` [ASAP-0000481], at SARS-CoV-2 nsp3-mac1 [1] (setting [10]), the inhibition at 49.75 µM was -5.62% and the inhibition at 99.5 µM was -10.9%. Besides, at SARS-CoV-2 nsp3-mac1 [2] (concentration 49.75 uM), the perc_inhibition_mean was -5.62%. For the same molecule, the perc_inhibition_mean on SARS-CoV-2 nsp3-mac1 [2] (concentration 99.5 uM) is on record as -10.916%.
